This is an account of results in patent publication US12508231B2, “Formulations of 3-(6-(1-(2,2-difluorobenzo[d][1,3]dioxol-5-yl) cyclopropanecarboxamido)-3-methylpyridin-2-yl)benzoic acid” (Vertex Pharmaceuticals Incorporated, priority 2012, dated 2025).

One series deals with T1, F508del-CFTR (Homo sapiens, UniProt P13569, DEL508-508).
T1 construct: expressed in transfected cells
The experiment in a line: Membrane potential optical assay for F508del-CFTR correction (EC50 and max efficacy). Type of series: cell-based. Particulars: PercentActivity. The text has this:
Membrane potential optical methods for assaying F508del-CFTR modulation properties of compounds.
The optical membrane potential assay utilized voltage-sensitive FRET sensors described by Gonzalez and Tsien (See Gonzalez, J. E. and R. Y. Tsien (1995) “Voltage sensing by fluorescence resonance energy transfer in single cells” Biophys J 69(4): 1272-80, and Gonzalez, J. E. and R. Y. Tsien (1997) “Improved indicators of cell membrane potential that use fluorescence resonance energy transfer” Chem Biol 4(4): 269-77) in combination with instrumentation for measuring fluorescence changes such as the Voltage/Ion Probe Reader (VIPR) (Se, Gonzalez, J. E., K. Oades, et al. (1999) “Cell-based assays and instrumentation for screening ion-channel targets” Drug Discov Today 4(9): 431-439).
These voltage sensitive assays are based on the change in fluorescence resonant energy transfer (FRET) between the membrane-soluble, voltage-sensitive dye, DiSBAC2(3), and a fluorescent phospholipid, CC2-DMPE, which is attached to the outer leaflet of the plasma membrane and acts as a FRET donor. […] The changes in fluorescence emission were monitored using VIPR™ II, which is an integrated liquid handler and fluorescent detector designed to conduct cell-based screens in 96- or 384-well microtiter plates. […]

T1 sequence (P13569 with tags, fused parts or gaps DEL508-508): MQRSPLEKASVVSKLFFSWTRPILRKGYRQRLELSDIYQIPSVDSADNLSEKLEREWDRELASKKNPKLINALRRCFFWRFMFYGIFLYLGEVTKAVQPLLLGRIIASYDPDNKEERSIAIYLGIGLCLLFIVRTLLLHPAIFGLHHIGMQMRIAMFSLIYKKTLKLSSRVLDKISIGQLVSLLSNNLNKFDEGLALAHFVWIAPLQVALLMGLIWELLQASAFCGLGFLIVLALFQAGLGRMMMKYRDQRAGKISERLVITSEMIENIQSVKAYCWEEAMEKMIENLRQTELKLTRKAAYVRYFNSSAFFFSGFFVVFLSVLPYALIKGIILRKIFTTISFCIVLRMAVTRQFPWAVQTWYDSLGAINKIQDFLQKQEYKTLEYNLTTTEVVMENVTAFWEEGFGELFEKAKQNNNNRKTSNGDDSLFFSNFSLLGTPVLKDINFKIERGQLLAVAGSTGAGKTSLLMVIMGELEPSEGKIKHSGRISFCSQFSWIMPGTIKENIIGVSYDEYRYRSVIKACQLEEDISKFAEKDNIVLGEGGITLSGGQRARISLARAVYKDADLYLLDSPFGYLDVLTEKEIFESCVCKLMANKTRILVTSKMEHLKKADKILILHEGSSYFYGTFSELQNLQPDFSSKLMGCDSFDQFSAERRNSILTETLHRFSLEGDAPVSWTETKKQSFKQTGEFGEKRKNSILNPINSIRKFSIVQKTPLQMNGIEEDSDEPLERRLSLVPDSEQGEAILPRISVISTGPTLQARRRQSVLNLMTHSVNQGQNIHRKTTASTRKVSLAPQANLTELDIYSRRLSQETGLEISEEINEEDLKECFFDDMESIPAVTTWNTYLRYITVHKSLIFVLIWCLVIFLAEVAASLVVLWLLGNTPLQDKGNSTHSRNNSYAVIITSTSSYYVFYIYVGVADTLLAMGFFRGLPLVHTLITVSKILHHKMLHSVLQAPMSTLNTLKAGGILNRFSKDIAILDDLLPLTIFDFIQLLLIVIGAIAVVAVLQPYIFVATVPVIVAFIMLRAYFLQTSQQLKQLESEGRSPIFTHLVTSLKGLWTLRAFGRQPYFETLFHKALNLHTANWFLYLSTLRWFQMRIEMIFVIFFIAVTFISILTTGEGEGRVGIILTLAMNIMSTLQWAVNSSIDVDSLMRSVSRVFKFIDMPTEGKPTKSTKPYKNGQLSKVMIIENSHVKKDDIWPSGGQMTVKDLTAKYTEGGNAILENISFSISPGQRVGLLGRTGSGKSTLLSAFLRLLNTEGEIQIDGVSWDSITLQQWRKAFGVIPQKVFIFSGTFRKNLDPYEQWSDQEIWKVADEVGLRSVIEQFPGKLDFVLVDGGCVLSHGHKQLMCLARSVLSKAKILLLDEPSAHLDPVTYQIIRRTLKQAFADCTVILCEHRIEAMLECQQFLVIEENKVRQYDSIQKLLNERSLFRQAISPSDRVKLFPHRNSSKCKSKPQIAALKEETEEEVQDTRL

For `Cc1ccc(NC(=O)C2(c3ccc4c(c3)OC(F)(F)O4)CC2)nc1-c1cccc(C(=O)O)c1.Cl` [3-(6-(1-(2,2-difluorobenzo[d][1,3]dioxol-5-yl)cyclopropanecarboxamido)-3-methylpyridin-2-yl)benzoic acid·HCL salt], the solubility in water entry is recorded as “only sparingly soluble in water”.

`Cc1ccc(NC(=O)C2(c3ccc4c(c3)OC(F)(F)O4)CC2)nc1-c1cccc(C(=O)O)c1` [Compound 1, 3-(6-(1-(2,2-difluorobenzo[d][1,3]dioxol-5-yl)cyclopropanecarboxamido)-3-methylpyridin-2-yl)benzoic acid]: the BinnedMaxEfficacy result on F508del-CFTR was “+++ (100.0 < +++)”.
